Measured values published in ChEMBL document CHEMBL1126676, “On the prediction of binding properties of drug molecules by comparative molecular field analysis” (1993).

Tests used:
[1] = target: T1, Thermolysin (Bacillus thermoproteolyticus) (UniProt P00800); assay: Binding constant against thermolysin expressed as negative logarithm
T1 sequence (whole entry): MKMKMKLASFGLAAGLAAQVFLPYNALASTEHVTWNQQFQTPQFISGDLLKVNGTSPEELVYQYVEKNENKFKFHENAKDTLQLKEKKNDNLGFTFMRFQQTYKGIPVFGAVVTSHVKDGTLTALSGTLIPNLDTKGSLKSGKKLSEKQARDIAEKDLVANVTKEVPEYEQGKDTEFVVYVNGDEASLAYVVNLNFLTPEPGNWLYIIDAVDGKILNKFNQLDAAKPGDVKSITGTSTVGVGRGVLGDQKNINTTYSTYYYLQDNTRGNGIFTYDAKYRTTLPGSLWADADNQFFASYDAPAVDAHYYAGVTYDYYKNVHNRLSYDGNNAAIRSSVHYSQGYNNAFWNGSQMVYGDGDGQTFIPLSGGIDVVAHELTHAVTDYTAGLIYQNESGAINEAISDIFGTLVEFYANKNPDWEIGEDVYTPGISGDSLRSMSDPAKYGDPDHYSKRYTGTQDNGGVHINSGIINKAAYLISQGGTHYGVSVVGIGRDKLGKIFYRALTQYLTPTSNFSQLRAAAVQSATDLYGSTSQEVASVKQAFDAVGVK

[2] = Negative logarithm of minimal inhibitory concentration against human rhinovirus 14; type: functional

CC(C)CC(NC(=O)C(CC(C)C)OP(=O)(O)CNC(=O)OCc1ccccc1)C(=O)O (stereo unspecified) gave a -ln K [1] of 11.6.

With Cc1cc(CCCCCCCOc2ccc(C3=NCCO3)cc2)on1 [DISOXARIL] the “-ln (MIC)” value [2] was 14.3.

For Cc1cc(CCCCCOc2ccc(C3=NCCO3)cc2Cl)on1, the “-ln (MIC)” value [2] was 12.9.

With Cc1cc(CCCCCCCOc2ccc(C3=N[C@H](C)CO3)cc2)on1 the “-ln (MIC)” value [2] was 14.7.

For CC(C)CC(OP(=O)(O)CNC(=O)OCc1ccccc1)C(=O)NC(Cc1ccccc1)C(=O)O (stereo unspecified), the -ln K [1] was 9.85.

CC(C)CC(OP(=O)(O)CNC(=O)OCc1ccccc1)C(=O)NC(C)C(=O)O (stereo unspecified) gave a -ln K [1] of 11.2.

With CC(C)CC(OP(=O)(O)CNC(=O)OCc1ccccc1)C(=O)NCC(=O)O (stereo unspecified) the -ln K [1] was 8.38.

Compound CC(C)CC(N)C(=O)NO (stereo unspecified) has a -ln K [1] of 8.57.

CC(C)CC(CP(=O)(O)CNC(=O)OCc1ccccc1)C(=O)NCC(=O)O (stereo unspecified) showed a -ln K [1] of 15.

With Cc1cc(CCCCCOc2ccc(C3=NCCO3)cc2)on1 the “-ln (MIC)” value [2] was 14.5.

In the case of Cc1cc(CCCCCCCOc2ccc(C3=N[C@@H](C)CO3)cc2Cl)on1, the “-ln (MIC)” value [2] was 15.4.

With Cc1cc(CCCCCCCOc2ccc(C3=N[C@@H](C)CO3)cc2)on1 the “-ln (MIC)” value [2] was 17.3.

For Cc1cc(CCCCCOc2ccc(C3=N[C@@H](C)CO3)cc2)on1, the “-ln (MIC)” value [2] was 14.3.

For CC(C)CC(CP(=O)(O)CNC(=O)OCc1ccccc1)C(=O)NC(C)C(=O)O (stereo unspecified), the -ln K [1] was 17.8.

In the case of CC[C@H]1COC(c2ccc(OCCCCCCCc3cc(C)no3)cc2)=N1, the “-ln (MIC)” value [2] was 17.7.

For CC(NC(=O)C(Cc1ccccc1)C(=O)NO)C(=O)NCCO (stereo unspecified), the -ln K [1] was 14.7.
